Here are results for eight compounds from patent US8268863B2 (priority 2007, dated 2012).

Test [1] addresses T1, human mu opioid receptor (Homo sapiens, UniProt P35372).
T1 construct: host or cells: CHO-K1
Briefly: Human mu GTP-Eu nucleotide exchange assay (agonist mediated activation). In kind it is biochemical. The following applies: bound GTP-Eu relative to DAMGO (IA=100), CHO-K1 membranes expressing human mu opioid receptor; read-out: intrinsic activity (IA).

Test [2] concerns the target T1, human mu opioid receptor. Briefly: Radioligand binding assay, human mu opioid receptor. Conditions: [3H]-Diprenorphine displacement, membranes of CHO-K1 cells; read-out: pKi at the human mu opioid receptor (converted).

Bounds are passed on as bounds.

T1 sequence (P35372 whole entry): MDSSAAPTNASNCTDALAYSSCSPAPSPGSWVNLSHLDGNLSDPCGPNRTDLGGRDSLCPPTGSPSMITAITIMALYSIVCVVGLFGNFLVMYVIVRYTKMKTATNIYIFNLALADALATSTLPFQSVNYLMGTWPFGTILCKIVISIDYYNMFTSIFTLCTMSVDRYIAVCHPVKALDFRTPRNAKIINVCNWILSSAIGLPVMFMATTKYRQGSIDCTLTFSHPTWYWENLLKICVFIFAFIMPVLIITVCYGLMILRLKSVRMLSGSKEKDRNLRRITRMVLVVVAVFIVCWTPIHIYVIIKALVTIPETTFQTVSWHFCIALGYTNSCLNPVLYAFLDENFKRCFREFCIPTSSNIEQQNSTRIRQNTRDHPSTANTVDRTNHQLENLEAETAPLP

Regarding `NC(=O)CCC(=O)NC(CC1CCCCC1)CN1[C@@H]2CC[C@H]1C[C@@H](c1cccc(O)c1)C2` (stereo partly drawn) [Example 3, N-{1-cyclohexylmethyl-2-[3-endo-(3-hydroxy-phenyl)-8-azabicyclo[3.2.1]oct-8-yl]ethyl}succinamide], the Emax on human mu opioid receptor [1] stood at 3%. On human mu opioid receptor [2], the Ki is 0.126 nM. Turning to `O=C(NC(CCc1ccccc1)CN1[C@@H]2CC[C@H]1C[C@@H](c1cccc(O)c1)C2)c1ccccc1` (some centres unmarked) [Example 76], the Emax on human mu opioid receptor [1] is ≥ 30%.

`CC(C)C[C@H](NC(=O)C(Cc1ccccc1)CN1[C@@H]2CC[C@H]1C[C@@H](c1cccc(C(N)=O)c1)C2)C(N)=O` (mixture of isomers) [Example 6, 3-endo-{8-[(S)-2-(S)-1-carbamoyl-3-methyl-butylcarbamoyl)-3-phenylpropyl]-8-azabicyclo[3.2.1]oct-3-yl}benzamide and 3-endo-{8-[(R)-2-((S)-1-carbamoyl-3-methylbutylcarbamoyl)-3-phenyl-propyl]-8-azabicyclo[3.2.1]oct-3-yl}benzamide]: at human mu opioid receptor [1], the Emax was -7%. The Ki on human mu opioid receptor [2] was 0.0631 nM. In the case of `Cc1ccc(S(=O)(=O)NC(CC2CCCCC2)CN2[C@@H]3CC[C@H]2C[C@@H](c2cccc(O)c2)C3)cc1` (stereo partly drawn) [Example 5, N-{1-cyclohexylmethyl-2-[3-endo-(3-hydroxy-phenyl)-8-azabicyclo[3.2.1]oct-8-yl]ethyl}-4-methyl-benzenesulfonamide], the Emax at human mu opioid receptor [1] came out at 2%. Also, the Ki on human mu opioid receptor [2] is 0.794 nM. For `O=C(NCC1CCCCC1)NC(CC1CCCCC1)CN1[C@@H]2CC[C@H]1C[C@@H](c1cccc(O)c1)C2` (stereo partly drawn) [Example 4, 1-cyclohexylmethyl-3-{1-cyclohexylmethyl-2-[3-endo-(3-hydroxyphenyl)-8-azabicyclo[3.2.1]oct-8-yl]ethyl}urea] the same measures were -3% and 0.1 nM.

For `O=C(CO)NC(CC1CCCCC1)CN1[C@@H]2CC[C@H]1C[C@@H](c1cccc(O)c1)C2` (stereo partly drawn) [Example 2, N-{1-cyclohexylmethyl-2-[3-endo-(3-hydroxy-phenyl)-8-azabicyclo[3.2.1]oct-8-yl]ethyl}-2-hydroxyacetamide], the Emax at human mu opioid receptor [1] came out at 24%. The Ki at human mu opioid receptor [2] is 0.0631 nM. For `O=C(NC(CC1CCCCC1)CN1[C@@H]2CC[C@H]1C[C@@H](c1cccc(O)c1)C2)C1CCCCC1` (stereo partly drawn) [Example 1, cyclohexanecarboxylic acid {1-cyclohexylmethyl-2-[3-endo-(3-hydroxyphenyl)-8-azabicyclo[3.2.1]oct-8-yl]-ethyl}amide] the same measures were -9% and 0.0631 nM. Take `CS(=O)(=O)NC(CCN1[C@@H]2CC[C@H]1C[C@@H](c1cccc(C(N)=O)c1)C2)c1ccccc1` (some centres unmarked) [Example 104]: at human mu opioid receptor [1], the Emax was ≥ 30%.
